Results: the supplement of paper PMC10702517
± gives the standard deviation.

How the values were obtained:
[1] = chemical recovery from spiked human plasma; higher = better extraction; conditions: pooled human plasma
[2] = chemical recovery into PDMS from spiked human plasma; higher = better extraction; conditions: pooled human plasma, extraction method: PES with PDMS
[3] = chemical recovery by SPE of plasma after PDMS sampling; higher = better extraction; conditions: pooled human plasma, extraction method: HLB SPE of plasma after PES
[4] = extraction method: SPE only (HLB 96-well)
[5] = extraction method: SPE only (HLB 96-well), PES comparison experiment
[6] = extraction method: solvent precipitation (ACN + hexane)
[7] = extraction method: PES+SPE (3 d PDMS equilibration then HLB SPE)
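For chemical recovery by SPE of plasma after PDMS sampling in this document: over 400 spiked chemicals quantified by LC-HRMS or GC-HRMS via internal standard calibration, recovery relative to spike mix added to unspiked plasma extract to correct matrix effects.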

Compound	chemical recovery [1, 4]	chemical recovery [1, 5]	chemical recovery [1, 6]	chemical recovery into PDMS ([2]; equilibration time (d): 1)	chemical recovery by SPE of plasma ([3]; equilibration time (d): 1)	chemical recovery by SPE of plasma ([3]; equilibration time (d): 3)	chemical recovery by SPE of plasma ([3]; equilibration time (d): 6)	chemical recovery [1, 7]	chemical recovery into PDMS ([2]; equilibration time (d): 3)	chemical recovery into PDMS ([2]; equilibration time (d): 6)
Clc1ccc(-c2cc(Cl)c(Cl)cc2Cl)cc1Cl [PCB118]	0.333 ± 0.1%	3.8 ± 7.6%	32 ± 1.2%	74.9 ± 4.3%	2.43 ± 1.6%	1.87 ± 0.24%	1.71 ± 0.54%			
Clc1cc(Cl)c(-c2ccc(Cl)c(Cl)c2Cl)cc1Cl [PCB138]	2.27 ± 0.8%	11.2 ± 2.8%	81.6 ± 6.5%	67.4 ± 9.5%	4.29 ± 2.9%	1.78 ± 0.29%	1.33 ± 0.48%	61.3 ± 12%	91.8 ± 1.4%	89.4 ± 5.2%
Clc1cc(Cl)c(-c2c(Cl)ccc(Cl)c2Cl)cc1Cl [PCB149]	4.51 ± 1.5%	10.4 ± 2%	91 ± 6.8%		3.35 ± 2.2%	1.54 ± 0.15%	1.29 ± 0.33%	56.86 ± 0.52%	103 ± 14%	100 ± 8.1%
Clc1cc(Cl)c(-c2cc(Cl)c(Cl)cc2Cl)cc1Cl [PCB153]	1.64 ± 0.63%	10.3 ± 2.5%	77.6 ± 3.5%	55.1 ± 6.8%	4.72 ± 3%	2.08 ± 0.28%	1.44 ± 0.58%	62.9 ± 9%	86.4 ± 3.6%	82.2 ± 2.6%
Clc1cc(Cl)c(-c2cc(Cl)c(Cl)c(Cl)c2Cl)cc1Cl [PCB180]	1.45 ± 0.68%				4.51 ± 2.9%	3.71 ± 1%	1.43 ± 0.49%	40.2 ± 2.1%	67.8 ± 8%	73.3 ± 5.7%
Clc1cc(-c2cc(Cl)c(Cl)c(Cl)c2Cl)c(Cl)c(Cl)c1Cl [PCB194]	0.915 ± 0.53%		2.72 ± 0.18%		3.6 ± 2.3%	5.05 ± 1.1%	2.4 ± 0.65%	38.3 ± 2.4%	54.4 ± 6.3%	63.4 ± 5.4%
Fc1ccc([C@@H]2CCNC[C@H]2COc2ccc3c(c2)OCO3)cc1 [Paroxetine]	63.1 ± 3.8%	42.8 ± 9.2%	61.7 ± 1.7%	0.404 ± 0.21%	2.65 ± 0.22%	3.11 ± 0.29%	2.27 ± 0.16%	3.9 ± 1.1%	0.313 ± 0.1%	0.637 ± 0.5%
CCC(CC)Nc1c([N+](=O)[O-])cc(C)c(C)c1[N+](=O)[O-] [Pendimethalin]	39 ± 11%	32.3 ± 7.6%	87.6 ± 9.3%	45.8 ± 3%		0.1 ± 0.17%			46.4 ± 4.9%	47.5 ± 6.3%
CC(=O)CCCCn1c(=O)c2c(ncn2C)n(C)c1=O [Pentoxifylline]	46.9 ± 3.7%	52.1 ± 4.9%	76.5 ± 3.2%	17.2 ± 0.99%	37.9 ± 5.9%	33.6 ± 3.5%	25.1 ± 4.3%	57.2 ± 6.1%	24.5 ± 3.9%	27 ± 2.1%
c1cc2cccc3c4cccc5cccc(c(c1)c23)c54 [Perylene]	1.66 ± 0.56%		64.2 ± 5.1%	73.8 ± 6.2%	0.65 ± 0.62%	1.03 ± 0.53%	1.2 ± 0.41%		71.9 ± 9.9%	79.5 ± 6%
CCOCCN(C(=O)CCl)C(=C(C)C)c1ccccc1 [Pethoxamid]		49.5 ± 6.9%	56.3 ± 2.8%	41 ± 2.5%		0.187 ± 0.32%			43.5 ± 3.3%	43.2 ± 1.5%
O=S(=O)(O)c1ccc2[nH]c(-c3ccccc3)nc2c1 [Phenylbenzimidazole sulfonic acid]	36.9 ± 3.3%	52 ± 5.8%	27.9 ± 3.1%	0.124 ± 0.24%	42.2 ± 5.2%	49 ± 1.8%	45.8 ± 8.4%	43.2 ± 2.9%		
CO/C=C(/C(=O)OC)c1ccccc1COc1cccc(C(F)(F)F)n1 [Picoxystrobin]	38.3 ± 2.8%	47.8 ± 7.1%	63.7 ± 4.3%	47 ± 3.2%	1.61 ± 0.23%	2.06 ± 0.34%	0.862 ± 0.75%		48.5 ± 5.8%	48.7 ± 2.7%
O=C(/C=C/C=C/c1ccc2c(c1)OCO2)N1CCCCC1 [Piperine]	40.7 ± 2.7%	56.1 ± 7.1%	83.6 ± 4%	34.8 ± 3.2%	1.77 ± 0.44%	1.85 ± 0.37%	0.965 ± 0.074%		39.3 ± 4.2%	36.6 ± 1.7%
CCCCOCCOCCOCc1cc2c(cc1CCC)OCO2 [Piperonyl butoxide]		39.5 ± 6.4%		46.4 ± 3.2%	0.249 ± 0.12%	0.337 ± 0.29%	0.24 ± 0.013%		48.7 ± 3.9%	46 ± 2.6%
Cc1nc(N(C)C)nc(OC(=O)N(C)C)c1C [Pirimicarb]	34.3 ± 1.5%	41.4 ± 5.3%	64.5 ± 2.5%	29.3 ± 1.2%	6.05 ± 0.55%	6.09 ± 1%	4.09 ± 0.28%	55.6 ± 8%	33.3 ± 1.8%	34 ± 1.7%
CCN(CC)c1nc(C)cc(OP(=S)(OC)OC)n1 [Pirimiphos-methyl]	36.4 ± 3.4%	42.9 ± 8.2%	68.8 ± 5.2%	29.7 ± 4.3%	0.602 ± 0.13%	0.453 ± 0.41%	0.275 ± 0.24%		33.5 ± 3.9%	32.1 ± 0.42%
C[C@]12C=CC(=O)C=C1CC[C@@H]1[C@@H]2C(=O)C[C@@]2(C)[C@H]1CC[C@]2(O)C(=O)CO [Prednisone]		45.5 ± 5.8%			41.6 ± 4.3%	43.7 ± 5.1%	41.1 ± 2.4%		0.176 ± 0.18%	0.265 ± 0.091%
CCCNCCOc1c(Cl)cc(Cl)cc1Cl [Prochloraz BTS403-48]	47.1 ± 2%	46.2 ± 5.1%	71.2 ± 3%	0.602 ± 0.13%	0.247 ± 0.057%	0.287 ± 0.11%	0.165 ± 0.0069%	1.17 ± 0.37%	0.604 ± 0.12%	0.862 ± 0.22%
CC(C)N(C(=O)CCl)c1ccccc1 [Propachlor]	28.6 ± 2.1%	41.4 ± 7.8%	45.1 ± 10%	31.9 ± 1.8%	1.58 ± 0.41%	2.49 ± 0.44%	1.58 ± 0.092%		34.7 ± 3.9%	35.3 ± 2.5%
CCCC1COC(Cn2cncn2)(c2ccc(Cl)cc2Cl)O1 (configuration not stated) [Propiconazole]		43.1 ± 6.8%	70.3 ± 3.4%	38.2 ± 2.5%	0.277 ± 0.24%	0.384 ± 0.17%	0.117 ± 0.052%		41 ± 3.7%	40.7 ± 1.6%
CC(C)NCC(O)COc1cccc2ccccc12 (configuration not stated) [Propranolol]	45.4 ± 2.9%	50 ± 7%	71.9 ± 3.2%	0.322 ± 0.19%	8.66 ± 0.64%	9.06 ± 1.1%	7.31 ± 0.57%	7.98 ± 1.1%	0.522 ± 0.36%	0.438 ± 0.19%
CCCOC(=O)c1ccc(O)cc1 [Propylparaben]	43.1 ± 2.1%	67.9 ± 7.4%	70.6 ± 3.7%	11.6 ± 0.24%	40.3 ± 8.2%	43 ± 3.8%	34 ± 0.68%	56.4 ± 4.7%	13.2 ± 1.9%	14.8 ± 2%
Cc1c(C(C)C)c(=O)n(-c2ccccc2)n1C [Propyphenazone]	44.6 ± 2.6%	47.3 ± 6.5%	69.31 ± 0.67%	17.3 ± 1.9%	4.36 ± 0.18%	3.89 ± 0.79%	2.01 ± 0.19%	48.4 ± 9.9%	22 ± 0.25%	23 ± 2.1%
C#CC(C)(C)NC(=O)c1cc(Cl)cc(Cl)c1 [Propyzamide]	65 ± 3.2%	48.1 ± 8.4%	64.8 ± 3.9%	34.8 ± 1.4%	5.12 ± 0.61%	7.16 ± 0.99%	4.71 ± 0.68%	64.9 ± 12%	38.5 ± 1.1%	39.4 ± 0.71%
